Source: patent US9745310B2 (SK BIOPHARMACEUTICALS CO., LTD., priority 2015, dated 2017)

biological target: human mGluR5 receptor (Homo sapiens (Human), UniProt P41594); experiment: Calcium influx assay based on fluorescence (mGluR5 PAM activity); settings: human mGluR5 receptor-overexpressed HEK293 cell line; L-glutamate EC20; Fluo-4, FLIPR
Method: Efficacy as a positive allosteric modulator (PAM) of mGluR5 of the compounds of the Examples was tested as follows:
Calcium Influx Assay Based on Fluorescence
Ca^2+ (calcium) influx assay is an experiment for measuring the activity of a positive allosteric modulator of mGluR5 receptor in which human mGluR5 receptor-overexpressed HEK293 cell line is used. The day before the experiment, cells were prepared in a cell culture medium (DMEM, 5% FBS) with the density of 80,000/well, and 100 μl of cells were dispensed into each well of a poly-D-lysine-coated 96-well plate. Cells were incubated in a 5% CO2, 37° C. incubator. The next day, the cell culture medium was removed from the plate, and 100 μl of 1× Fluo-4 calcium indicator diluted with a buffer (1× Hank's balanced salt solution, 20 mM HEPES, 2.5 mM probenecid) were added to each well and incubated at 37° C. for 1 hour. The compound stock solutions were prepared in 100% DMSO, and the compounds were serially diluted with a ¼ dilution to 6 or 7 concentrations (final concentration was 10 μM to 10 nM). The diluted compound solutions were added to the plate with 0.1 to 0.2% of final DMSO concentration. 1 hour after the addition of Fluo-4 calcium indicator, L-glutamate (EC20 concentration) and the test compound solutions were added to the plate, and Ca^2+ reaction was then measured by FLIPR at room temperature. The activity of the compounds was standardized on the basis of the results of maximum value-minimum value of fluorescent reaction, and the activity value was calculated on the basis that no activity on glutamate EC20 is 0% and the reaction to glutamate maximum value is 100%.

human mGluR5 receptor, sequence (P41594 21-1212): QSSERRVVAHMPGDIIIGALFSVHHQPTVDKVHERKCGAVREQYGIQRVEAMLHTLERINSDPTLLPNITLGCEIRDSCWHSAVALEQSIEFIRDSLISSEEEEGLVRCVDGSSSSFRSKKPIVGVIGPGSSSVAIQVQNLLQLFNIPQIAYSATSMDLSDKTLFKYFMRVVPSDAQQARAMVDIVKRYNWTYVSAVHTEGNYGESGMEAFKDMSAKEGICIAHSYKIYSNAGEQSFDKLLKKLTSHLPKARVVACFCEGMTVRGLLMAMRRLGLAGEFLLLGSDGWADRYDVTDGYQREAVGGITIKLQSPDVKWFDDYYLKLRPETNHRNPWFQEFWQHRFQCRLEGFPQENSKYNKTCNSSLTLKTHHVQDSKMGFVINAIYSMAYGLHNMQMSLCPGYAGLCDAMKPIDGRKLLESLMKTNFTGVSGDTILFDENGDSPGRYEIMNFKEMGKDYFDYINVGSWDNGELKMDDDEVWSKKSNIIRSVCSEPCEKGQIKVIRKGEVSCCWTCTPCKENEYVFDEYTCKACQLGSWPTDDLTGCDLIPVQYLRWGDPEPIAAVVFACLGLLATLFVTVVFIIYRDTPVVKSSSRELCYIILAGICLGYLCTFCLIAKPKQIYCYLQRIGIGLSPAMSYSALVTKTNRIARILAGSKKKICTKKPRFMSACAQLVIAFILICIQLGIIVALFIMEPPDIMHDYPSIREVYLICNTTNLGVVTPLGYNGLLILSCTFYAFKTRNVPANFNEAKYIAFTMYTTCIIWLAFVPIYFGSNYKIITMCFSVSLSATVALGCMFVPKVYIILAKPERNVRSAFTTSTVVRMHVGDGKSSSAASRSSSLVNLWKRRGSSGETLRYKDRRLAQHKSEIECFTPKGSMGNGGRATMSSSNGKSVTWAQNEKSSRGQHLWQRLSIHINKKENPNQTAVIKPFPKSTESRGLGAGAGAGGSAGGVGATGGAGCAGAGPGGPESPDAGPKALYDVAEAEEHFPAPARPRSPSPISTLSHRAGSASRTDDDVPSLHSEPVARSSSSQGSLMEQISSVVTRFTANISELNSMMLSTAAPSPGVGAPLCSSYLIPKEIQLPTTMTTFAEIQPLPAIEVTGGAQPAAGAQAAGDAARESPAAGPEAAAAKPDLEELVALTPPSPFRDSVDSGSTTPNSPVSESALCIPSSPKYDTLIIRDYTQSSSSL

SMILES	EC50
Fc1ccccc1-c1cnc2nc(COc3ccccc3)cn2c1 [Example 1, 6-(2-fluorophenyl)-2-phenoxymethylimidazo[1,2-a]pyrimidine]	100 to 500 nM
c1ccc(OCc2cn3cc(-c4ccccc4)cnc3n2)cc1 [Example 2, 2-phenoxymethyl-6-phenylimidazo[1,2-a]pyrimidine]	100 to 500 nM
COc1ccccc1-c1cnc2nc(COc3ccccc3)cn2c1 [Example 4, 6-(2-methoxyphenyl)-2-phenoxymethylimidazo[1,2-a]pyrimidine]	100 to 500 nM
Fc1cccc(-c2cnc3nc(COc4ccccc4)cn3c2)c1F [Example 7, 6-(2,3-difluorophenyl)-2-phenoxymethylimidazo[1,2-a]pyrimidine]	100 to 500 nM
Fc1ccc(-c2cnc3nc(COc4ccccc4)cn3c2)cc1 [Example 8, 6-(4-fluorophenyl)-2-phenoxymethylimidazo[1,2-a]pyrimidine]	100 to 500 nM
Nc1cccc(-c2cnc3nc(COc4ccccc4)cn3c2)c1 [Example 9, 6-(3-aminophenyl)-2-phenoxymethylimidazo[1,2-a]pyrimidine]	500 to 1000 nM
Nc1ccccc1-c1cnc2nc(COc3ccccc3)cn2c1 [Example 10, 6-(2-aminophenyl)-2-phenoxymethylimidazo[1,2-a]pyrimidine]	100 to 500 nM
Cc1ccc(N)cc1-c1cnc2nc(COc3ccccc3)cn2c1 [Example 11, 6-(3-amino-6-methylphenyl)-2-phenoxymethylimidazo[1,2-a]pyrimidine]	100 to 500 nM
Nc1cc(-c2cnc3nc(COc4ccccc4)cn3c2)ccc1F [Example 12, 6-(3-amino-4-fluorophenyl)-2-phenoxymethylimidazo[1,2-a]pyrimidine]	500 to 1000 nM
Fc1ccc(-c2cnc3nc(COc4ccccc4)cn3c2)cc1Cl [Example 13, 6-(3-chloro-4-fluorophenyl)-2-phenoxymethylimidazo[1,2-a]pyrimidine]	500 to 1000 nM
CN(C)c1ccccc1-c1cnc2nc(COc3ccccc3)cn2c1 [Example 14, 6-(2-dimethylaminophenyl)-2-phenoxymethylimidazo[1,2-a]pyrimidine]	100 to 500 nM
Fc1ccc(-c2cnc3nc(COc4ccccc4)cn3c2)c(Cl)c1 [Example 15, 6-(2-chloro-4-fluorophenyl)-2-phenoxymethylimidazo[1,2-a]pyrimidine]	100 to 500 nM
Oc1ccccc1-c1cnc2nc(COc3ccccc3)cn2c1 [Example 16, 6-(2-hydroxyphenyl)-2-phenoxymethylimidazo[1,2-a]pyrimidine]	500 to 1000 nM
Oc1cccc(-c2cnc3nc(COc4ccccc4)cn3c2)c1 [Example 17, 6-(3-hydroxyphenyl)-2-phenoxymethylimidazo[1,2-a]pyrimidine]	500 to 1000 nM
Fc1ccc(-c2cnc3nc(COc4ccccc4)cn3c2)c(C(F)(F)F)c1 [Example 18, 6-(4-fluoro-2-trifluoromethylphenyl)-2-phenoxymethylimidazo[1,2-a]pyrimidine]	100 to 500 nM
Fc1ccc(-c2cnc3nc(COc4ccccc4)cn3c2)cc1F [Example 19, 6-(3,4-difluorophenyl)-2-phenoxymethylimidazo[1,2-a]pyrimidine]	500 to 1000 nM
COc1cc(F)ccc1-c1cnc2nc(COc3ccccc3)cn2c1 [Example 20, 6-(2-methoxy-4-fluorophenyl)-2-phenoxymethylimidazo[1,2-a]pyrimidine]	100 to 500 nM
COc1cc(-c2cnc3nc(COc4ccccc4)cn3c2)ccc1F [Example 21, 6-(4-fluoro-3-methoxyphenyl)-2-phenoxymethylimidazo[1,2-a]pyrimidine]	500 to 1000 nM

SMILES	EC50
COc1cc(Cl)ccc1-c1cnc2nc(COc3ccccc3)cn2c1 [Example 22, 6-(4-chloro-2-methoxyphenyl)-2-phenoxymethylimidazo[1,2-a]pyrimidine]	500 to 1000 nM
COc1cc(C#N)ccc1-c1cnc2nc(COc3ccccc3)cn2c1 [Example 23, 6-(4-cyano-2-methoxyphenyl)-2-phenoxymethylimidazo[1,2-a]pyrimidine]	100 to 500 nM
Fc1ccc(-c2cnc3nc(COc4ccccc4)cn3c2)c2c1OCO2 [Example 24, 6-(7-fluorobenzo[1,3]dioxol-4-yl)-2-phenoxymethylimidazo[1,2-a]pyrimidine]	100 to 500 nM
CSc1cc(F)ccc1-c1cnc2nc(COc3ccccc3)cn2c1 [Example 26, 6-(4-fluoro-2-methylthiophenyl)-2-phenoxymethylimidazo[1,2-a]pyrimidine]	100 to 500 nM
Nc1cc(F)ccc1-c1cnc2nc(COc3ccccc3)cn2c1 [Example 27, 6-(2-amino-4-fluorophenyl)-2-phenoxymethylimidazo[1,2-a]pyrimidine]	100 to 500 nM
COc1cc(-c2cnc3nc(COc4ccccc4)cn3c2)c(F)cc1F [Example 28, 6-(2,4-difluoro-5-methoxyphenyl)-2-phenoxymethylimidazo[1,2-a]pyrimidine]	500 to 1000 nM
Fc1ncccc1-c1cnc2nc(COc3ccccc3)cn2c1 [Example 29, 6-(2-fluoropyridin-3-yl)-2-phenoxymethylimidazo[1,2-a]pyrimidine]	100 to 500 nM
COc1ccc(-c2cnc3nc(COc4ccccc4)cn3c2)cn1 [Example 30, 6-(6-methoxypyridin-3-yl)-2-phenoxymethylimidazo[1,2-a]pyrimidine]	500 to 1000 nM
Fc1ccc(-c2cnc3nc(COc4ccccc4)cn3c2)cn1 [Example 31, 6-(6-fluoropyridin-3-yl)-2-phenoxymethylimidazo[1,2-a]pyrimidine]	100 to 500 nM
Cc1ccncc1-c1cnc2nc(COc3ccccc3)cn2c1 [Example 32, 6-(4-methylpyridin-3-yl)-2-phenoxymethylimidazo[1,2-a]pyrimidine]	100 to 500 nM
Fc1ccc(-c2cnc3nc(COc4ccccc4)cn3c2)c(F)n1 [Example 33, 6-(2,6-difluoropyridin-3-yl)-2-phenoxymethylimidazo[1,2-a]pyrimidine]	100 to 500 nM
Clc1ccc(-c2cnc3nc(COc4ccccc4)cn3c2)cn1 [Example 34, 6-(6-chloropyridin-3-yl)-2-phenoxymethylimidazo[1,2-a]pyrimidine]	100 to 500 nM
Fc1cc(-c2cnc3nc(COc4ccccc4)cn3c2)ccn1 [Example 35, 6-(2-fluoropyridin-4-yl)-2-phenoxymethylimidazo[1,2-a]pyrimidine]	100 to 500 nM
Clc1cnccc1-c1cnc2nc(COc3ccccc3)cn2c1 [Example 36, 6-(3-chloropyridin-4-yl)-2-phenoxymethylimidazo[1,2-a]pyrimidine]	100 to 500 nM
Clc1ccc(-c2cnc3nc(COc4ccccc4)cn3c2)cc1 [Example 37, 6-(4-chlorophenyl)-2-phenoxymethylimidazo[1,2-a]pyrimidine]	500 to 1000 nM
Cc1cc(F)ncc1-c1cnc2nc(COc3ccccc3)cn2c1 [Example 38, 6-(6-fluoro-4-methyl-3-pyridyl)-2-phenoxymethylimidazo[1,2-a]pyrimidine]	100 to 500 nM
Cc1cc(-c2cnc3nc(COc4ccccc4)cn3c2)cnc1F [Example 39, 6-(6-fluoro-5-methyl-3-pyridyl)-2-phenoxymethylimidazo[1,2-a]pyrimidine]	100 to 500 nM
Fc1ccc(-c2cnc3nc(COc4ccccc4)cn3c2)nc1 [Example 40, 6-(5-fluoro-2-pyridyl)-2-phenoxymethylimidazo[1,2-a]pyrimidine]	100 to 500 nM
